Series [1] can be described thus: Dimerization of linker element precursors in aqueous solution by MS and MS/MS. Format: physicochemical. As to the method:
The ability of precursors to linker elements to form dimers in aqueous solutions was determined by mass spectrometry (MS) and mass spectrometry/mass spectrometry (MS/MS). Linker elements that form dimers (or multimers) only as a result of the ionization during mass spectrometry can be distinguished from those that truly form dimers in aqueous solution by determination of the fragmentation during mass spectrometry/mass spectrometry.

Series [2] concerns the target Bcl-xL (Homo sapiens, UniProt Q07817). The note with it: read-out: DISSOCIATION CONSTANT (Kd); cited from earlier work.
Series [3] deals with ERK. The settings on record: read-out: DISSOCIATION CONSTANT (Kd); cited from earlier work.
Series [4] concerns the target CaMKII. The note with it: read-out: DISSOCIATION CONSTANT (Kd); cited from earlier work.
For series [5], the target named is CDK2 (Homo sapiens, UniProt P24941). The settings on record: read-out: DISSOCIATION CONSTANT (Kd); cited from earlier work.
Series [6] addresses MEK2 (Homo sapiens, UniProt P36507). The note with it: read-out: DISSOCIATION CONSTANT (Kd); cited from earlier work.
For series [7], the target named is T1, β CATENIN (Homo sapiens, UniProt P35222).
T1 sequence (P35222 1-781): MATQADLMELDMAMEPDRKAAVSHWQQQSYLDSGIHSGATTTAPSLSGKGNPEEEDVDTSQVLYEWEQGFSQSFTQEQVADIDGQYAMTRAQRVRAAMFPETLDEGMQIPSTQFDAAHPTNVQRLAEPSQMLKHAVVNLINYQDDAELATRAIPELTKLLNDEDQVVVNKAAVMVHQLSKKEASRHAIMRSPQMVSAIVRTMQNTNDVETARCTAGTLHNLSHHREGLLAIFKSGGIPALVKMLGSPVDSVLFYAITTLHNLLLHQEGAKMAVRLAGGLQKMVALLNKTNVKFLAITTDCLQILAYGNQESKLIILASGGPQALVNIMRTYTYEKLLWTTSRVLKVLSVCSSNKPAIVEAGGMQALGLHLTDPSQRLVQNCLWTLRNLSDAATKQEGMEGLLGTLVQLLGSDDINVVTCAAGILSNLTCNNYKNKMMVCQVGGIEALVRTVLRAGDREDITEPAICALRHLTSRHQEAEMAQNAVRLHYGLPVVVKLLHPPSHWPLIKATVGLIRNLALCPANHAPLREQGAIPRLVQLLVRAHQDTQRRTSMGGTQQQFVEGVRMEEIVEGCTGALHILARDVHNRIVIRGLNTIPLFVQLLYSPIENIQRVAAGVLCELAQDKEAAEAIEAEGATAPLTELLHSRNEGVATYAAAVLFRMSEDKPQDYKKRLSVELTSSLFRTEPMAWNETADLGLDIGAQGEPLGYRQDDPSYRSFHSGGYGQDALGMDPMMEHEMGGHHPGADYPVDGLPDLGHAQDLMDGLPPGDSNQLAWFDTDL
The note with it: read-out: DISSOCIATION CONSTANT (Kd); cited from earlier work.

The target in series [8] is MEK1 (Homo sapiens, UniProt Q02750). The note with it: read-out: DISSOCIATION CONSTANT (Kd); cited from earlier work.
Where [9] appears, read: self-dimerization, MS and MS/MS.
The mark [10] stands for this setting: piperidin-2-ylmethanol with cyclohexylboronic acid.

We go through 13 molecules from patent US8853185B2, “Coferons and methods of making and using them” (Cornell University, priority 2008, dated 2014).

In general, Kd refers to the concentration at which binding is half-saturated.

Sequence of Bcl-xL (Q07817 whole entry, species assumed): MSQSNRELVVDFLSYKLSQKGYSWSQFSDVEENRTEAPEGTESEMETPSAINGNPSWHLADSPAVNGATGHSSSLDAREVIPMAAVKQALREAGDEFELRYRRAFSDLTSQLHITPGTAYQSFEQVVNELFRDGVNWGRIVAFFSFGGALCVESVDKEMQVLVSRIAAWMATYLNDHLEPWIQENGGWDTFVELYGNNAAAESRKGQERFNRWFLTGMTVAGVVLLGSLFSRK

`O=C1CCCCC1O` (stereo not shown) [2-hydroxycyclohexanone]: in series [1] (setting [9]), the “ability to form dimers in aqueous solution” value (“ability to form dimers” below) was “forms a dimer”.
On to cytochrome c: binding partner of Bcl-xL, for which the Kd in series [2] was 120 nM.
Turning to `O=C(CO)CO` [1,3-dihydroxyacetone], the “ability to form dimers” value in series [1] (setting [9]) is “exists mostly as the monomer”.
With MEK1: binding partner of ERK, the Kd in series [3] was 610 nM.
For Calmodulin, the Kd in series [4] was 30 nM.
On to `Nc1ncnc2c1ncn2[C@@H]1O[C@H](COP(=O)(O)OP(=O)(O)O)[C@@H](O)[C@H]1O` [ADP], for which, in series [5], the Kd was 2700 nM.
As to `OB(O)C1CCCCC1` [cyclohexylboronic acid], the “ability to form dimers” value in series [1] (setting [10]) is “form a dimer”.
Regarding ERK2: binding partner of MEK2, the Kd in series [6] is 9000 nM.
As to APC: binding partner of β CATENIN, the Kd in series [7] was 310000 nM.
Take ERK1: binding partner of MEK1: in series [8], the Kd is 29000 nM.
Take `Cc1occc(=O)c1O` [3-hydroxy-2-methyl-4H-pyran-4-one]: the “ability to form dimers” value in series [1] (with zinc acetate, 2 molecules co-ordinating one Zn cation, MS/MS) is on record as “form a dimer”.
For `OCC1CCCCN1` (stereo not shown) [piperidin-2-ylmethanol], the “ability to form dimers” value in series [1] (setting [10]) is “form a dimer”.
For `Nc1ncnc2c1ncn2[C@@H]1O[C@H](COP(=O)(O)OP(=O)(O)OP(=O)(O)O)[C@@H](O)[C@H]1O` [ATP], the Kd in series [5] was 227 nM.
